Measurements taken from patent publication US12077503B2, “Substituted cyclic amides and their use as herbicides” (FMC CORPORATION, priority 2015, dated 2024).

Columns and labels:
Type in all cases: in vivo
Kochia (Kochia scoparia) [1] = assay: Test A preemergence; settings: Bassia scoparia, pre-emergence, 240 h; for pest or weed control at 125 g/ha: 125 g ai/ha, preemergence, visual rating after approx. 10 d, 0 to 100 scale where 0 is no effect and 100 is complete control, read-out: Plant response rating, Kochia; for pest or weed control at 500 g/ha: 500 g ai/ha, Preemergence, visual injury vs untreated controls after approximately 10 d, read-out: Kochia plant response rating (0 to 100 scale where 0 is no effect and 100 is complete control)
In short: (§1)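 Preemergence directed soil spray on seeded pots, or postemergence application to plants 2–10 cm, one- to two-leaf. Solvent mixture non-phytotoxic, with surfactant. Scored ~10 d later, visually, 0–100 vs untreated.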

[2] = test system: barnyardgrass (Echinochloa crus-galli); assay: Test A preemergence; settings: Echinochloa crus-galli, pre-emergence, 240 h; for pest or weed control at 125 g/ha: 125 g ai/ha, preemergence, visual rating after approx. 10 d, 0 to 100 scale where 0 is no effect and 100 is complete control, read-out: Plant response rating, Barnyardgrass; for pest or weed control at 500 g/ha: 500 g ai/ha, Preemergence, visual injury vs untreated controls after approximately 10 d, read-out: Barnyardgrass plant response rating (0 to 100 scale where 0 is no effect and 100 is complete control)
In short: as §1

[3] = test system: giant foxtail (Setaria faberii); assay: Test A preemergence; settings: Setaria faberi, pre-emergence, 240 h; for pest or weed control at 125 g/ha: 125 g ai/ha, preemergence, visual rating after approx. 10 d, 0 to 100 scale where 0 is no effect and 100 is complete control, read-out: Plant response rating, Foxtail, Giant; for pest or weed control at 500 g/ha: 500 g ai/ha, Preemergence, visual injury vs untreated controls after approximately 10 d, read-out: Foxtail, Giant plant response rating (0 to 100 scale where 0 is no effect and 100 is complete control)
In short: as §1

[4] = test system: pigweed (Amaranthus retroflexus); assay: Test A preemergence; settings: Amaranthus retroflexus, pre-emergence, 240 h; for pest or weed control at 125 g/ha: 125 g ai/ha, preemergence, visual rating after approx. 10 d, 0 to 100 scale where 0 is no effect and 100 is complete control, read-out: Plant response rating, Pigweed; for pest or weed control at 500 g/ha: 500 g ai/ha, Preemergence, visual injury vs untreated controls after approximately 10 d, read-out: Pigweed plant response rating (0 to 100 scale where 0 is no effect and 100 is complete control)
[5] = test system: ragweed (common ragweed, Ambrosia elatior); assay: Test A preemergence; settings: Ambrosia artemisiifolia, pre-emergence, 240 h; for pest or weed control at 125 g/ha: 125 g ai/ha, preemergence, visual rating after approx. 10 d, 0 to 100 scale where 0 is no effect and 100 is complete control, read-out: Plant response rating, Ragweed; for pest or weed control at 500 g/ha: 500 g ai/ha, Preemergence, visual injury vs untreated controls after approximately 10 d, read-out: Ragweed plant response rating (0 to 100 scale where 0 is no effect and 100 is complete control)
In short: as §1

[6] = test system: ryegrass, Italian (Italian ryegrass, Lolium multiflorum); assay: Test A preemergence; settings: Lolium multiflorum, pre-emergence, 240 h; for pest or weed control at 125 g/ha: 125 g ai/ha, preemergence, visual rating after approx. 10 d, 0 to 100 scale where 0 is no effect and 100 is complete control, read-out: Plant response rating, Ryegrass, Italian; for pest or weed control at 500 g/ha: 500 g ai/ha, Preemergence, visual injury vs untreated controls after approximately 10 d, read-out: Ryegrass, Italian plant response rating (0 to 100 scale where 0 is no effect and 100 is complete control)
In short: as §1

Kochia (Kochia scoparia) [7] = assay: Test A postemergence; settings: Bassia scoparia, post-emergence, 240 h, 125 g ai/ha, postemergence; visual injury after approximately 10 d; 0 to 100 scale (0 no effect, 100 complete control); read-out: Plant response rating, Kochia
In short: as §1

[8] = test system: blackgrass (Alopecurus myosuroides); assay: Test A postemergence; settings: Alopecurus myosuroides, post-emergence, 240 h, 125 g ai/ha, postemergence; visual injury after approximately 10 d; 0 to 100 scale (0 no effect, 100 complete control); read-out: Plant response rating, Blackgrass
In short: as §1

[9] = test system: ragweed (common ragweed, Ambrosia elatior); assay: Test A postemergence; settings: Ambrosia artemisiifolia, post-emergence, 240 h, 125 g ai/ha, postemergence; visual injury after approximately 10 d; 0 to 100 scale (0 no effect, 100 complete control); read-out: Plant response rating, Ragweed
In short: as §1

[10] = test system: ryegrass, Italian (Italian ryegrass, Lolium multiflorum); assay: Test A postemergence; settings: Lolium multiflorum, post-emergence, 240 h, 125 g ai/ha, postemergence; visual injury after approximately 10 d; 0 to 100 scale (0 no effect, 100 complete control); read-out: Plant response rating, Ryegrass, Italian
In short: as §1

[11] = test system: wheat (Triticum aestivum); assay: Test A postemergence; settings: Triticum aestivum, post-emergence, 240 h, 125 g ai/ha, postemergence; visual injury after approximately 10 d; 0 to 100 scale (0 no effect, 100 complete control); read-out: Plant response rating, Wheat
In short: as §1

[12] = test system: barnyardgrass (Echinochloa crus-galli); assay: Test B flooded paddy test; settings: Echinochloa crus-galli, Flood, 250 g ai/ha; scale of 0 to 100 where 0 is no effect and 100 is complete control; read-out: Barnyardgrass plant response rating
In short: (§2)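 Evaluation by eye, against controls, occurred 13–15 d post-treatment in a greenhouse, using a 0 (no effect) to 100 (complete control) scale. Application was into the paddy water, 3 cm deep over the soil, on 2-leaf plants.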

[13] = test system: ducksalad (Heteranthera limosa); assay: Test B flooded paddy test; settings: Heteranthera limosa, Flood, 250 g ai/ha; scale of 0 to 100 where 0 is no effect and 100 is complete control; read-out: Ducksalad plant response rating
In short: as §2

rice (Oryra sativa) = assay: Test B flooded paddy test; settings: Oryza sativa, Flood, 250 g ai/ha; scale of 0 to 100 where 0 is no effect and 100 is complete control; read-out: Rice plant response rating
In short: as §2

[14] = test system: sedge, umbrella (small-flower umbrella sedge, Cyperus difformis); assay: Test B flooded paddy test; settings: Cyperus difformis, Flood, 250 g ai/ha; scale of 0 to 100 where 0 is no effect and 100 is complete control; read-out: Sedge, Umbrella plant response rating
In short: as §2

Compound	pest or weed control at 125 g/ha (Kochia (Kochia scoparia) [1]) [%]	pest or weed control at 500 g/ha (Kochia (Kochia scoparia) [1]) [%]	pest or weed control at 125 g/ha [2] [%]	pest or weed control at 500 g/ha [2] [%]	pest or weed control at 125 g/ha [3] [%]	pest or weed control at 500 g/ha [3] [%]	pest or weed control at 125 g/ha [4] [%]	pest or weed control at 500 g/ha [4] [%]	pest or weed control at 125 g/ha [5] [%]	pest or weed control at 500 g/ha [5] [%]	pest or weed control at 125 g/ha [6] [%]	pest or weed control at 500 g/ha [6] [%]	pest or weed control at 125 g/ha (Kochia (Kochia scoparia) [7]) [%]	pest or weed control at 125 g/ha [8] [%]	pest or weed control at 125 g/ha [9] [%]	pest or weed control at 125 g/ha [10] [%]	plant injury at 125 g/ha [11] [%]	pest or weed control at 250 g/ha [12] [%]	pest or weed control at 250 g/ha [13] [%]	pest or weed control at 250 g/ha (rice (Oryra sativa)) [%]	other results
CC(F)(F)c1cccc([C@H]2CNC(=O)[C@@H]2C(=O)Nc2ccc(F)cc2F)c1 [Compound 781]	50	90	80	100	90	100	0	70	0	0	20	50	0	70	0	20	50	65	100	0	pest or weed control at 250 g/ha [14]: 0%
CC(F)(F)c1cccc([C@H]2CNC(=O)[C@@H]2C(=O)Nc2ccccc2F)c1 [Compound 782]	80	90	80	90	90	100	0	50	0	20	40	60	10	70	0	40	60	65	100	0	pest or weed control at 250 g/ha [14]: 0%
O=C1NC[C@H](c2ccc3c(c2)CCO3)[C@H]1C(=O)Nc1cccc(F)c1F [Compound 785]	20	40	90	90	90	90	0	20	0	0	0	40	0	20	0	30	0	40	90	0	pest or weed control at 250 g/ha [14]: 0%
